Experimental data reported in paper PMC7099204, “Geranylated Coumarins From Thai Medicinal Plant Mammea siamensis With Testosterone 5α-Reductase Inhibitory Activity” (Frontiers in Chemistry, 2020).
Where two headings read alike, the source gives them in different places.

Biological target: T1, testosterone 5α-reductase (Rattus norvegicus, UniProt P24008)
T1 sequence (P24008 1-259): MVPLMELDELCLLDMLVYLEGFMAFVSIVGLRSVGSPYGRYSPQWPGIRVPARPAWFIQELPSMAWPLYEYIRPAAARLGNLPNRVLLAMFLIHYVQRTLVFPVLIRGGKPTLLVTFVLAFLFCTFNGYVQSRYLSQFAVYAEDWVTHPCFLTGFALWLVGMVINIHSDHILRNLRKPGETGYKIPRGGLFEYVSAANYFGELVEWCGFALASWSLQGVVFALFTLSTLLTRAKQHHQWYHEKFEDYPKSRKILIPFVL
Experiment: Assay for testosterone 5α-reductase inhibitory activity (rat liver S9 fractions, HPLC of remaining testosterone)
Assay type: biochemical
Description: The experiment was performed in accordance with previously reported methods (Matsuda et al., [2001]; Lee et al., [2012]; Koseki et al., [2015]) with slight modifications. In brief, the assay was performed in 48-well microplates (Sumitomo Bakelite Co., Ltd., Tokyo, Japan). The reaction solution was pre-incubated with or without a test sample (5 μL/well, dissolved in DMSO), in a potassium phosphate buffer (40 mM, pH 6.5, 490 μL/well) containing substrate (0.35 nmol of testosterone, Tokyo Chemical Industry Co., Ltd., Tokyo, Japan) and NADPH (10 nmol, Oriental Yeast Co., Ltd., Tokyo, Japan) at room temperature (25°C) for 20 min. The enzymatic reaction was initiated by the addition of rat liver S9 fractions (10 μL/well, dissolved in the phosphate buffer, 20.6 μg/well, Oriental Yeast Co., Ltd., Tokyo, Japan, lot no. 109031513) at 37°C for 30 min. After incubation, the reaction mixture was immediately heated in boiling water for 2 min to stop the reaction. Then the reaction solution of each well was transferred to a microtube and extracted with 500 μL of EtOAc. After the microtube was centrifuged (10,000 rpm, 5 min), an aliquot of each EtOAc phase (300 μL) was transferred into another tube. The solvent in the tube was evaporated and the residue was dissolved in 30 μL of acetonitrile containing an internal standard (I.S.) fludrocortisone acetate (20 μg/mL, Sigma-Aldrich, Co., LLC, St. Louis, USA). […] The 5α-reductase inhibitory activity was determined from the following equation using the peak area ratios (r = testosterone/I.S.). Experiments were performed in triplicate or quadruple, and IC50 values were determined graphically. The 5α-reductase inhibitor finasteride (Tokyo Chemical Industry Co., Ltd., Tokyo, Japan) was used as a reference compound.
Inhibition(%)=[r(T)-r(C)/r(B)-r(C)]× 100
Control (C): enzyme (+), test sample (–); Test (T): enzyme (+), test sample (+); Blank (B): enzyme (–), test sample (+).

[1] = 100 μM, mean ± S.E.M. (N = 3–4), read-out: Inhibition (%)
[2] = 3 μM, mean ± S.E.M. (N = 3–4), read-out: Inhibition (%)
[3] = 10 μM, mean ± S.E.M. (N = 3–4), read-out: Inhibition (%)
[4] = 30 μM, mean ± S.E.M. (N = 3–4), read-out: Inhibition (%)

Row | SMILES | inhibition at 100 µM [1] [%] | inhibition at 3 µM [2] [%] | inhibition at 10 µM [3] [%] | inhibition at 30 µM [4] [%] | other results
1 | CCCC(=O)c1c(O)c2c(c3c([C@@H](O)CC)cc(=O)oc13)OC(C)(CCC=C(C)C)C=C2 (some centres unmarked) [Compound 1, kayeassamin I] | 37.5 ± 11.1 | – | – | – | –
2 | CC[C@H](O)c1cc(=O)oc2c(C(=O)CC(C)C)c(O)c3c(c12)OC(C)(CCC=C(C)C)C=C3 (some centres unmarked) [Compound 2, Mammeasin E] | 89.5 ± 15.8 | 20 ± 9.2 | 30.9 ± 9.3 | 53.9 ± 12.7 | –
3 | CCC(C)C(=O)c1c(O)c2c(c3c([C@@H](O)CC)cc(=O)oc13)OC(C)(CCC=C(C)C)C=C2 (some centres unmarked) [Compound 3, Mammeasin F] | 14.9 ± 5.4 | – | – | – | –
4 | CCCC(=O)c1c(O)c(C/C=C(\C)CCC=C(C)C)c(O)c2c([C@H](CC)OC(C)=O)cc(=O)oc12 [Compound 4, Mammeasin A] | 129 ± 20.9 | 12.6 ± 10.5 | 40.8 ± 12.8 | 53.1 ± 5.2 | –
5 | CC[C@H](OC(C)=O)c1cc(=O)oc2c(C(=O)CC(C)C)c(O)c(C/C=C(\C)CCC=C(C)C)c(O)c12 [Compound 5, Mammeasin B] | 83.7 ± 4.3 | 35.3 ± 6.1 | 39.9 ± 4.2 | 58.8 ± 9.6 | –
6 | CC(C)=CCC/C(C)=C/Cc1c(O)c(C(=O)C(C)C)c2oc(=O)cc3c2c1OC(C)C3 (centres unmarked) [Compound 6, Mammeasin C] | 52.9 ± 22.5 | 3.4 ± 13.1 | 8.8 ± 10 | 17.9 ± 10.6 | –
7 | CCCC(=O)c1c(O)c(C/C=C(\C)CCC=C(C)C)c2c3c(cc(=O)oc13)CC(C)O2 (centres unmarked) [Compound 7, Mammeasin D] | 16.4 ± 5.8 | – | – | – | –
8 | CCCC(=O)c1c(O)c(C/C=C(\C)CCC=C(C)C)c(O)c2c([C@@H](O)CC)cc(=O)oc12 [Compound 8, kayeassamin A] | 20.2 ± 7.9 | – | – | – | –
9 | CCCC(=O)c1c(O)c(CC=C(C)C)c2oc(=O)cc([C@@H](O)CC)c2c1O [Compound 9, Kayeassamin E] | 79.9 ± 12.7 | 2.6 ± 7.1 | 11.5 ± 12.7 | 51.1 ± 12.4 | –
10 | CCC(C)C(=O)c1c(O)c(CC=C(C)C)c2oc(=O)cc([C@@H](O)CC)c2c1O (some centres unmarked) [Compound 10, Kayeassamin F] | 94.6 ± 1.3 | 4.6 ± 1.1 | 41 ± 6.4 | 68.6 ± 3.9 | –
11 | CC[C@H](O)c1cc(=O)oc2c(CC=C(C)C)c(O)c(C(=O)CC(C)C)c(O)c12 [Compound 11, Kayeassamin G] | 62.3 ± 3.2 | 14.4 ± 9.7 | 37.5 ± 6.9 | 61.3 ± 3 | –
12 | CCC(C)C(=O)c1c(O)c(C/C=C(\C)CCC=C(C)C)c(O)c2c([C@H](CC)OC(C)=O)cc(=O)oc12 (some centres unmarked) [Compound 12, surangin B] | 38.5 ± 5 | – | – | – | –
13 | CCC(C)C(=O)c1c(O)c(C/C=C(\C)CCC=C(C)C)c(O)c2c([C@@H](O)CC)cc(=O)oc12 (some centres unmarked) [Compound 13, surangin C] | 124 ± 9.6 | 28.2 ± 7.7 | 63.6 ± 8.3 | 114 ± 6.7 | –
14 | CC(C)=CCc1c(O)c(C(=O)CC(C)C)c(O)c2c(-c3ccccc3)cc(=O)oc12 [Compound 17, Mammea A/AA] | – | – | – | – | inhibition at 3 µM: 18.9 ± 7%; inhibition at 10 µM: 32 ± 3.9%; inhibition at 30 µM: 62 ± 2.8%; inhibition at 100 µM: 92.9 ± 5.3%
15 | CCCc1cc(=O)oc2c3c(c(C(=O)C(C)CC)c(O)c12)OC(C)(C)C=C3 (centres unmarked) [Compound 27, Mammea B/AB cyclo D] | 40.7 ± 18.1 | – | – | – | –
16 | CCCC(=O)c1c(O)c2c(c3c(C(CC)OC(C)=O)cc(=O)oc13)OC(C)(C)C=C2 (centres unmarked) [Compound 29, Mammea E/BC cyclo D] | 31.9 ± 3.9 | – | – | – | –
17 | CC[C@H](O)c1cc(=O)oc2c3c(c(C(=O)CC(C)C)c(O)c12)OC(C)(C)C=C3 [Compound 31, deacetylmammea E/AA cyclo D] | 37.1 ± 4 | – | – | – | –
18 | CCC(C)C(=O)c1c(O)c2c(c3c([C@@H](O)CC)cc(=O)oc13)OC(C)(C)C=C2 (some centres unmarked) [Compound 32, deacetylmammea E/BB cyclo D] | 31.9 ± 8.8 | – | – | – | –
19 | CC(C)(C)NC(=O)[C@H]1CC[C@H]2[C@@H]3CC[C@H]4NC(=O)C=C[C@]4(C)[C@H]3CC[C@]12C [Finasteride, finasteride, reference compound] | – | – | – | – | inhibition at 0.1 µM: 48.5 ± 10.9%; inhibition at 0.3 µM: 61.8 ± 11.4%; inhibition at 1 µM: 76 ± 9.8%; inhibition at 3 µM: 91.3 ± 13.1%

Second part, led by results:

Row | inhibition at 100 µM [1] [%] | inhibition at 3 µM [2] [%] | inhibition at 10 µM [3] [%] | inhibition at 30 µM [4] [%] | SMILES | other results
20 | 23.3 ± 7.2 | – | – | – | CCC(C)C(=O)c1c(O)c(CC=C(C)C)c2oc(=O)cc(-c3ccccc3)c2c1O (centres unmarked) [Compound 18, mammea A/AB] | –
21 | 41.5 ± 11.4 | – | – | – | CCCC(=O)c1c(O)c(CC=C(C)C)c2oc(=O)cc(-c3ccccc3)c2c1O [Compound 19, Mammea A/AC] | –
22 | 30.3 ± 2.1 | – | – | – | CC(C)=CCc1c(O)c(C(=O)C(C)C)c(O)c2c(-c3ccccc3)cc(=O)oc12 [Compound 20, Mammea A/AD] | –
23 | 38.3 ± 3.8 | – | – | – | CC(C)CC(=O)c1c2c(c3oc(=O)cc(-c4ccccc4)c3c1O)C=CC(C)(C)O2 [Compound 24, Mammea A/AA cyclo D] | –
24 | 6.7 ± 4.5 | – | – | – | CCC(C)C(=O)c1c2c(c3oc(=O)cc(-c4ccccc4)c3c1O)C=CC(C)(C)O2 (centres unmarked) [Compound 25, Mammea A/AB cyclo D] | –
25 | 32 ± 1.9 | – | – | – | CCCC(=O)c1c2c(c3oc(=O)cc(-c4ccccc4)c3c1O)C=CC(C)(C)O2 [Compound 26, Mammea A/AC cyclo D] | –
26 | 27.3 ± 2 | – | – | – | CCCC(=O)c1c2c(c3oc(=O)cc(CCC)c3c1O)C=CC(C)(C)O2 [Compound 28, Mammea B/AC cyclo D] | –
27 | 40.8 ± 4.1 | – | – | – | CCCC(=O)c1c(O)c2c(c3c([C@@H](O)CC)cc(=O)oc13)OC(C)(C)C=C2 [Compound 33, deacetylmammea E/BC cyclo D] | –
28 | 57 ± 15.7 | 13.8 ± 6.7 | 21.6 ± 10.3 | 62.8 ± 18.1 | CC(C)CC(=O)c1c2c(c3oc(=O)cc(-c4ccccc4)c3c1O)CC(C(C)(C)O)O2 (centres unmarked) [Compound 34, mammea A/AA cyclo F] | –
29 | 54.8 ± 23.2 | 4.2 ± 6.1 | 18.4 ± 6.9 | 32.5 ± 6 | CCCC(=O)c1c2c(c3oc(=O)cc(-c4ccccc4)c3c1O)CC(C(C)(C)O)O2 (centres unmarked) [Compound 35, mammea A/AC cyclo F] | –
